Strand notation (5' to 3'): a small letter for the sugar, then the base; units joined by * are phosphorothioate-linked, units joined directly phosphodiester-linked; [ ] holds rarer units or linkages, { } end groups; capitals alone tell only the bases. e = 2'-O-(2-methoxyethyl) (MOE); [5mC] = 5-methylcytosine; d = 2'-deoxy (DNA)
system: human Factor 7 mRNA; test: Antisense inhibition of human Factor 7 with short (14-mer) oligonucleotides in HepB3 cells, electroporation 1,000 nM; type: cell-based; conditions: electroporation, 1,000 nM antisense oligonucleotide, approximately 24 hours, Factor 7 mRNA relative to untreated control cells
How it was run: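 14-mer 2-10-2 MOE gapmers (full phosphorothioate, 5-methyl-C) electroporated at 1,000 nM into HepB3 cells at 20,000 cells/well. After ~24 h, Factor 7 mRNA by real-time RT-PCR, normalized to RiboGreen total RNA. Reported as % inhibition relative to untreated cells.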

| Substance | % Inhibition [%] |
| --- | --- |
| 435801 (antisense e[5mC]*eG*dG*dT*dT*dG*dG*d[5mC]*d[5mC]*dA*dG*dG*e[5mC]*e[5mC]) [compound 435801] | 38 |
| 435802 (antisense eG*eT*d[5mC]*dA*d[5mC]*d[5mC]*dT*dA*dG*dA*d[5mC]*d[5mC]*eA*eA) [compound 435802] | 61 |
| 435803 (antisense eG*eA*dG*dA*dA*dT*dT*dG*d[5mC]*d[5mC]*d[5mC]*dA*eG*eG) [compound 435803] | 0 |
| 435804 (antisense e[5mC]*eA*dG*dG*dG*dA*d[5mC]*dT*d[5mC]*dT*d[5mC]*dA*eG*e[5mC]) [compound 435804] | 26 |
| 435805 (antisense eT*eG*dA*dA*dT*dT*dA*d[5mC]*dT*dG*dA*dA*e[5mC]*e[5mC]) [compound 435805] | 0 |
| 435806 (antisense eT*eG*dA*d[5mC]*d[5mC]*d[5mC]*d[5mC]*dA*d[5mC]*dA*dG*dG*eG*eA) [compound 435806] | 7 |
| 435807 (antisense e[5mC]*eA*dG*dT*dA*d[5mC]*dT*dT*d[5mC]*d[5mC]*d[5mC]*dA*e[5mC]*eG) [compound 435807] | 35 |
| 435808 (antisense e[5mC]*eT*d[5mC]*dT*dG*dG*dA*d[5mC]*dA*d[5mC]*d[5mC]*dG*eG*eG) [compound 435808] | 66 |
| 435809 (antisense e[5mC]*eT*dG*dA*d[5mC]*dA*dA*dT*dG*dT*dG*dA*eT*eG) [compound 435809] | 5 |
| 435810 (antisense e[5mC]*eT*dG*dA*dG*dG*dG*dA*dA*dT*dG*dT*eT*eG) [compound 435810] | 1 |
| 435811 (antisense eG*eT*dG*dG*dT*d[5mC]*dA*dA*dG*dG*dA*dT*eG*eA) [compound 435811] | 27 |
| 435812 (antisense eG*e[5mC]*dT*dG*dA*dG*d[5mC]*dA*dG*dA*dG*dA*eT*e[5mC]) [compound 435812] | 35 |
| 435813 (antisense eG*eG*dA*dT*dG*d[5mC]*dA*d[5mC]*dA*d[5mC]*d[5mC]*dA*eG*eG) [compound 435813] | 55 |
| 435814 (antisense eT*eG*dA*d[5mC]*dG*dA*dG*dA*dG*dG*dA*d[5mC]*e[5mC]*eA) [compound 435814] | 31 |
| 435815 (antisense e[5mC]*eT*d[5mC]*dT*dT*d[5mC]*d[5mC]*dG*dA*dG*d[5mC]*dA*eG*e[5mC]) [compound 435815] | 59 |
| 435816 (antisense eT*e[5mC]*d[5mC]*dA*dA*dA*dG*dG*dA*d[5mC]*dA*dA*eG*eG) [compound 435816] | 4 |
| 435817 (antisense e[5mC]*eT*dG*dA*dG*d[5mC]*dT*dT*dG*dG*d[5mC]*dA*e[5mC]*e[5mC]) [compound 435817] | 39 |
| 435818 (antisense eG*eT*d[5mC]*dA*dT*d[5mC]*d[5mC]*dT*dT*dG*dT*d[5mC]*eT*eG) [compound 435818] | 43 |
| 435819 (antisense eT*eT*dT*dG*dT*d[5mC]*d[5mC]*dA*dG*dT*dA*dA*eG*eA) [compound 435819] | 1 |
| 435820 (antisense e[5mC]*eA*dT*d[5mC]*d[5mC]*dT*dA*dG*dT*d[5mC]*dA*d[5mC]*eT*eG) [compound 435820] | 19 |
| 435821 (antisense eA*eG*dT*d[5mC]*dA*dG*dT*dA*d[5mC]*dA*dG*dA*e[5mC]*eA) [compound 435821] | 0 |
| 435822 (antisense e[5mC]*e[5mC]*dA*dG*dG*dA*dG*d[5mC]*d[5mC]*dT*dT*dT*eA*e[5mC]) [compound 435822] | 37 |
| 435823 (antisense eT*eG*dA*dG*dT*d[5mC]*d[5mC]*d[5mC]*dA*dG*dG*d[5mC]*eT*eG) [compound 435823] | 41 |
| 435824 (antisense e[5mC]*e[5mC]*dT*dA*dA*dA*dG*dA*dT*dG*dA*dA*eT*e[5mC]) [compound 435824] | 21 |
